The text below walks through data of patent US8513227B2, “Inhibition of inflammatory cytokine production with tanshinones” (The Feinstein Institute for Medical Research, priority 2006, dated 2013).

Like-named read-outs stand apart in the source and are kept apart here.

The test system of test [1] is HMGB1. As to the kind of experiment: LPS-induced HMGB1 release in RAW 264.7 macrophage cultures (western blot). It counts as cell-based, murine. The following applies: for IC50: Mus musculus, read-out: estimated IC50 for LPS-induced HMGB1 release. From the text:
Cell culture. […] Rendon-Mitchell et al. 2003). Murine macrophages were pre-cultured in RPMI 1640 medium (Gibco BRL, Grand Island, N.Y.) supplemented with 10% fetal bovine serum (FBS) and 2 mmol/L glutamine. Human peripheral blood mononuclear cells (HuPBMCs) were isolated from the blood of healthy donors (Long Island Blood Bank, Melville, N.Y.) by density gradient centrifugation through Ficoll (Ficoll-Paque PLUS, Pharmacia, Piscataway, N.J.), and cultured in RPMI 1640 supplemented with 10% heat-inactivated human serum/0.2 mM L-glutamine as previously described (Rendon-Mitchell et al. 2003). LPS stimulation. Adherent macrophages or monocytes were gently washed with, and cultured in, serum-free OPTI-MEM I medium two hours before stimulation with bacterial endotoxin (lipopolysaccharide, LPS, E. coli 0111:B4, Sigma-Aldrich). […] Rendon-Mitchell et al. 2003; Wang et al. 1999). HMGB1 western blotting analysis. The levels of HMGB1 in the culture medium or serum were determined by western blotting analysis as previously described (Chen et al. 2004; Rendon-Mitchell et al. 2003; Wang et al. 1999). The relative band intensity was quantified using NIH image 1.59 software to determine HMGB1 levels with reference to standard curves generated with purified HMGB1.

A further test relates to lethal sepsis. Description: Lethal sepsis induced by cecal ligation and puncture (CLP) in Balb/C mice. It counts as in vivo. The following applies: 12 mg/kg, repeated at 24, 48, 72, 96 hours post onset; vehicle 50%; N=14, p>0.05. As for the experimental part:
Animal models of endotoxemia and sepsis. This study was approved and performed in accordance with the guidelines for the care and use of laboratory animals at the Feinstein Institute for Medical Research, Manhasset, N.Y. Endotoxemia was induced in Balb/C mice (male, 7-8 weeks) by intraperitoneal injection of bacterial endotoxin (LPS, 15 mg/kg) as previously described (Chen et al. 2005; Wang et al. 1999; Wang et al. 2006). Sepsis was induced in male Balb/C mice (7-8 weeks, 20-25 g) or Sprague-Dawley rats (290-310 g) by cecal ligation and puncture (CLP) as previously described (Wang et al. 2006; Yang et al. 2002b). Herbal components were administered intraperitoneally into mice at indicated doses and time points, and mice were monitored for survival for up to two weeks. In parallel experiments, mice were euthanized to collect blood at 28 h (following two doses of herbal components at −0.5 and +24 h) after endotoxemia, and at 52 h (following two doses of herbal components at +24 and +48 h) after CLP.
TNF ELISA. The levels of TNF in the culture medium or serum were determined using commercial enzyme linked immunosorbent assay (ELISA) kits (Catalog no. MTA00, R & D Systems, Minneapolis, Minn.) with reference to standard curves of purified recombinant TNF at various dilutions as previously described (Chen et al. 2004; Rendon-Mitchell et al. 2003; Wang et al. 2006).
Nitric oxide assay. The levels of nitric oxide in the culture medium were determined indirectly by measuring NO^2− production with a colorimetric assay based on the Griess reaction (Rendon-Mitchell et al. 2003). NO2-concentrations were determined with reference to a standard curve generated with sodium nitrite at various dilutions.
HMGB1 western blotting analysis. The levels of HMGB1 in the culture medium or serum were determined by western blotting analysis as previously described (Chen et al. 2004; Rendon-Mitchell et al. 2003; Wang et al. 1999). The relative band intensity was quantified using NIH image 1.59 software to determine HMGB1 levels with reference to standard curves generated with purified HMGB1.
Tissue histology. At 48 hours after CLP, mice were euthanized in CO2 Chamber, and immediately perfused (transcardially) with phosphate buffer saline and 4% paraformaldehyde. Various tissues were harvested, sectioned, and stained with hematoxylin and eosin for morphology evaluation.

For a further test, the system named is phospholipase A2. The following applies: Kim et al. 2002; cited from earlier work.
A further test deals with nitric oxide. The following applies: Wang et al. 2006; cited from earlier work.
In test [2] the test system is HMGB1. Particulars: Wang et al. 2006; cited from earlier work.
In a further test the target is acetylcholinesterase (Homo sapiens, UniProt P22303). Particulars: literature; cited from earlier work.
Sequence of acetylcholinesterase (P22303 32-614, species assumed): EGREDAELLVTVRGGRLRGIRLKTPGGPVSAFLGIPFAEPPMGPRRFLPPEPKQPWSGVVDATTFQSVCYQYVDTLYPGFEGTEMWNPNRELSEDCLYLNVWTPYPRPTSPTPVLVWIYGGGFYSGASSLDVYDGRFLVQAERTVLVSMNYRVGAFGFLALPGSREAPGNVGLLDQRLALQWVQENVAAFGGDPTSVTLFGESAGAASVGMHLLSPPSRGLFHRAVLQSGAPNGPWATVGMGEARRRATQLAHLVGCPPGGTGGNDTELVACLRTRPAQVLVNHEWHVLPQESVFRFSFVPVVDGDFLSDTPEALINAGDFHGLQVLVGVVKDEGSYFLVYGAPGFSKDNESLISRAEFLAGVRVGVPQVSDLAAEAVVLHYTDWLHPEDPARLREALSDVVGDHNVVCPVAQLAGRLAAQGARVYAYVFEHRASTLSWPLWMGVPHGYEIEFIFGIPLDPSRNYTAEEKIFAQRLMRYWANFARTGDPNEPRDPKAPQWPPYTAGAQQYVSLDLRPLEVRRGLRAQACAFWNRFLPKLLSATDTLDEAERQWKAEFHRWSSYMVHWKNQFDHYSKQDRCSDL
Another test deals with TNF. As to the kind of experiment: LPS-mediated TNF secretion in RAW 264.7 macrophages (ELISA). It counts as cell-based, murine. Particulars: concentrations up to 10 μM, FIG. 5C. The protocol: Cell culture. Murine macrophage-like RAW 264.7 cells were obtained from the American Type Culture Collection (ATCC, Rockville, Md.), and primary peritoneal macrophages were isolated from Balb/C mice (male, 7-8 weeks, 20-25 grams) at 2-3 days after intraperitoneal injection of 2 ml thioglycollate broth (4%) as previously described (Chen et al. 2004; Rendon-Mitchell et al. 2003). Murine macrophages were pre-cultured in RPMI 1640 medium (Gibco BRL, Grand Island, N.Y.) supplemented with 10% fetal bovine serum (FBS) and 2 mmol/L glutamine. Human peripheral blood mononuclear cells (HuPBMCs) were isolated from the blood of healthy donors (Long Island Blood Bank, Melville, N.Y.) by density gradient centrifugation through Ficoll (Ficoll-Paque PLUS, Pharmacia, Piscataway, N.J.), and cultured in RPMI 1640 supplemented with 10% heat-inactivated human serum/0.2 mM L-glutamine as previously described (Rendon-Mitchell et al. 2003). LPS stimulation. […] The levels of TNF in the culture medium or serum were determined using commercial enzyme linked immunosorbent assay (ELISA) kits (Catalog no. MTA00, R & D Systems, Minneapolis, Minn.) with reference to standard curves of purified recombinant TNF at various dilutions as previously described (Chen et al. 2004; Rendon-Mitchell et al. 2003; Wang et al. 2006).
A general note: An ELISA detects its analyte on a solid surface through an enzyme-linked reagent.

[3] abbreviates: RAW264.7, RAW 264.7 cells, 16 h after LPS, western blot, estimated.
Setting [4] is: superpharmacological concentrations (1-25 μM), data not shown.

Take `Cc1coc2c1C(=O)C(=O)c1c-2ccc2c1CCCC2(C)C` [tanshinone IIA, 1,6,6-Trimethyl-6,7,8,9-tetrahydro-phenanthro[1,2-b]furan-10,11-dione]: in the test with HMGB1 [1] (setting [3]), the IC50 was below 25 µM. Also, in the test on lethal sepsis, the “survival rate, lethal sepsis” value amounted to 61%.
For the molecule `Cc1coc2c1C(=O)C(=O)c1c-2ccc2c(C)cccc12` [tanshinone I], in the test with HMGB1 [1] (setting [3]), the IC50 was below 25 µM. In addition, the “survival rate, lethal sepsis” value with lethal sepsis was 57%. For the same molecule, the “inhibition of phospholipase A2” value in the test with phospholipase A2 is on record as “can inhibit”.
For the molecule `COc1cc(/C=C/C(=O)O)ccc1O` [ferulic acid], the “effect on LPS-induced nitric oxide production” value with nitric oxide was “effectively attenuated”. Further, the “effect on LPS-induced HMGB1 release” value in the test on HMGB1 [2] is recorded as “failed to affect”.
As to `CC(C)Cc1ccc(C(C)C(=O)O)cc1` (centres unmarked) [ibuprofen], in the test on HMGB1 [1] (setting [4]), the “effect on LPS-induced HMGB1 release” value is “None of the tested cyclooxygenase inhibitors (e.g., aspirin, ibuprofen, and indomethacin) significantly affected”.
As for `COc1ccc2c(c1)c(CC(=O)O)c(C)n2C(=O)c1ccc(Cl)cc1` [indomethacin], the “effect on LPS-induced HMGB1 release” value in the test with HMGB1 [1] (setting [4]) was “None of the tested cyclooxygenase inhibitors (e.g., aspirin, ibuprofen, and indomethacin) significantly affected”.
Same read-out and setting: with `CC(=O)Oc1ccccc1C(=O)O` [aspirin] the entry was “None of the tested cyclooxygenase inhibitors (e.g., aspirin, ibuprofen, and indomethacin) significantly affected”.
With `CC1COC2=C1C(=O)C(=O)c1c2ccc2c1CCCC2(C)C` (centres unmarked) [cryptotanshinone, 1,6,6-Trimethyl-1,2,6,7,8,9-hexahydro-phenanthro[1,2-b]furan-10,11-dione], the half-inhibitory concentration (IC50) in the test on HMGB1 [1] (RAW264.7, 16 h) is below 25 µM. Further, the inhibition of acetylcholinesterase entry at acetylcholinesterase is given as “can inhibit”.
For `C[C@]12CCC(=O)C=C1CC[C@@H]1[C@@H]2C(=O)C[C@@]2(C)[C@H]1CC[C@]2(O)C(=O)CO` [cortisone], in the test on HMGB1 [1] (concentrations up to 10 μM, FIG. 5B), the “effect on LPS-induced HMGB1 release” value is recorded as “failed to reduce”. Further, the “effect on LPS-mediated TNF secretion” value in the test on TNF was “effectively attenuated”.

Broadly, the IC50 is the concentration that gives 50% inhibition.
